Source: paper PMC9491549, “Reverse mutants of the catalytic 19 kDa mutant protein (nanoKAZ/nanoLuc) from Oplophorus luciferase with coelenterazine as preferred substrate” (PLoS ONE, 2022)

Key:
[1] = target: T1, native Oplophorus luciferase (OpLase) (Oplophorus gracilirostris, UniProt Q9GV45); experiment: luminescence inhibition with coelenterazine; assay type: biochemical; conditions: coelenterazine 1.2 × 10^−4 M (so in the source); 1 μg each in 200 μL), 30 mM Tris-HCl, 10 mM EDTA, 1 min preincubation; no inhibitor = 100
T1 construct: 19 kDa and 35 kDa subunits, 106 kDa; with Oplophorus-luciferin 2-monooxygenase non-catalytic subunit
From the text: luminescence inhibition with coelenterazine on native Oplophorus luciferase (OpLase)

[2] = target: T2, Gaussia luciferase (GLase) (Gaussia princeps (in: crustaceans), UniProt Q9BLZ2); experiment: luminescence inhibition with coelenterazine; assay type: biochemical; conditions: coelenterazine 1.2 × 10^−4 M (so in the source); 1 μg each in 200 μL), 30 mM Tris-HCl, 10 mM EDTA, 1 min preincubation; no inhibitor = 100
T2 construct: C-terminal His tag, signal peptide removed by secretion; stably expressed in CHO-K1/dhfr- cells (pcDNA3-hGL-H), Ni column
T2 sequence (Q9BLZ2 18-185): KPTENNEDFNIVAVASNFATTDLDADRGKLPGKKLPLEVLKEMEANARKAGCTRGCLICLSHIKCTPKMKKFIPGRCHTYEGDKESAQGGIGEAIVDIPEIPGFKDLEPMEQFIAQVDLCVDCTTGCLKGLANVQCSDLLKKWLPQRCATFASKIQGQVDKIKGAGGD
From the text: luminescence inhibition with coelenterazine on Gaussia luciferase (GLase)

T1 sequence (Q9GV45 28-196): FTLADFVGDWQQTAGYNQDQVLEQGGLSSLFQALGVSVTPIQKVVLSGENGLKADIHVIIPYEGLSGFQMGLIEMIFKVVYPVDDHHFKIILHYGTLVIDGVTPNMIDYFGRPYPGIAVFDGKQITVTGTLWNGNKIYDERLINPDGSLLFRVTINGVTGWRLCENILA
T1 sequence (Q9GV46 40-359 partner): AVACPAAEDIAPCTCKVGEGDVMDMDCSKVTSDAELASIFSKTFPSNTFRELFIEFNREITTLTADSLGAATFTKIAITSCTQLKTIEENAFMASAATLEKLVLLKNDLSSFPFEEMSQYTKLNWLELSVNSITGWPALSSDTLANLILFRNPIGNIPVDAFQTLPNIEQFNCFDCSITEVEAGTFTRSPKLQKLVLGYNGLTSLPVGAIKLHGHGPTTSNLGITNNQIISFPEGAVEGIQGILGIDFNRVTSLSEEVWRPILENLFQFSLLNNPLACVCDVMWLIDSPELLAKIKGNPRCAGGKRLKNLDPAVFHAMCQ

Row | SMILES | Relative luminescence activity (Imax, %) / OpLase ^a [1] [%] | Relative luminescence activity (Imax, %) / GLase ^a [2] [%] | Relative luminescence activity (Imax, %) / QL-nanoKAZ ^a [2] [%]
1 | O=C1c2cc(-c3ccc(O)cc3)cc(Cc3ccccc3)c2C[C@]1(CO)Cc1ccc(O)cc1 [(S)-HM-daCTZ] | 19.7 | 5.3 | –
2 | O=C1c2cc(-c3ccc(O)cc3)cc(Cc3ccccc3)c2C[C@@]1(CO)Cc1ccc(O)cc1 [(R)-HM-daCTZ] | 33.5 | 23.5 | –
3 | O=C1c2cc(-c3ccc(O)cc3)cc(Cc3ccccc3)c2C[C@@H]1Cc1ccc(O)cc1 [(S)-daCTZ] | 2.1 | – | 0.4
4 | O=C1c2cc(-c3ccc(O)cc3)cc(Cc3ccccc3)c2C[C@H]1Cc1ccc(O)cc1 [(R)-daCTZ] | 5.1 | 0.5 | –
